In US20050249714A1, “Method of using secretin and compositions made therefrom for the treatment of autism and other neurological, behavioral and immunological disorders” (Repligen Corporation, a Massachusetts corporation, priority 1997, published 2005):
No end group written: not given here.

Key:
abnormal opioid peptides = conditions: autistic children responding to casein free and gluten free diet, after the secretin infusion; cited from earlier work
[1] = test system: patient, a child with symptoms of autism; experiment: Intravenous secretin infusion in a child with symptoms of autism (Example 1); assay type: in vivo, human
Protocol: The present invention will be better understood from the following examples which are given by way of illustration and not by way of limitation. The patient, the same in both examples, is a child with symptoms of autism.
When the patient was […], the secretin was administered by way of an infusion as part of an upper gastrointestinal endoscopy. The secretin was used in this diagnostic procedure at the request of the patient's parents, one of which is an inventor of the present invention. The secretin used in this procedure is known as Secretin-Ferring available from Ferring Laboratories, Inc., Suffern, N.Y. (See Appendix A). The secretin was dissolved in a […] solution of sodium chloride and administered in a dosage of 2 clinical units (CU) per kilogram (kg) body weight by intravenous injection over one minute. (I.E. 30 IU IV for approximately 15 kilograms of body weight.)
The diagnostic tests performed on the patient during this procedure also indicated gastric inflammation. […] The following Table I summarizes the improvements observed in the patient within 3 weeks after the infusion of secretin.
Biomedical changes were also measured in the patient.
At the request of the patient's parents, a second infusion of secretin was performed about 9 months after the first infusion, and a third infusion of secretin was performed about three months after the second infusion.

[2] = test system: patient, a child with symptoms of autism; experiment: Daily transdermal secretin with DMSO in the same patient (Example 2); assay type: in vivo, human; conditions: about 15 CU daily
Protocol: At the time of this treatment, the patient was […]. Secretin was administered transdermally using pharmaceutical grade dimethyl sulfoxide (DMSO) (generally 99.9% pure) available from Clinic Service Co., Box 2512, Hemet Calif. 92543. The secretin (Secretin-Ferring) was administered daily in a dosage of about 75 CU over a five day period (i.e., about 15 CU daily) For each treatment, about 4 drops of DMSO were placed onto the skin of the patient, about 15 CU of the crystalline secretin was placed onto the DMSO, and the composition was rubbed into the skin.

For “secretin (HSDGTFTSELSRLRDSARLQRLLQGLV-NH2; ends and bridges not checked; UniProt P63298 33-59, looked up) [polypeptide hormone secreted by the mucosa of the duodenum and upper jejunum; used as Secretin-Ferring from Ferring Laboratories]”, the abnormal opioid peptides (abnormal opioid peptides) is listed as “the peptides disappeared”, the “time at which the rate of the patient's progress appeared to decrease” value ([1]; after the first infusion) is listed as “about 5 weeks” and the “perfusion of the right posterior parietal and right temporal lobes (SPECT scan)” value ([1]; after the treatment) is listed as “improved”. The “results of second and third infusions” value ([1]; second infusion about 9 months after the first, third about three months after the second) was “achieved the same results”, the imitation of commands ([1]; within 3 weeks after infusion, before: did not imitate) was “Will imitate almost any multi-step command” and the diet preferences ([1]; within 3 weeks after infusion, before: limited diet preferences) was “No Change”. The “connections made between language and objects” value ([1]; within 3 weeks after infusion, before: no apparent connections) was “Many connections made between new language”, the interaction with videos ([1]; within 3 weeks after infusion, before: watch videos) was “Now, gets “involved” interactively with their videos” and the “chronic abnormal bowel movements” value ([1]; within days after the administration, no change in diet) was “became normal”. The overall improvements [2] was “even more dramatic and significant improvements”.
